Earlier results on one substance are cited in patent US20240115654A1, “INTRAVENOUS ADMINISTRATION OF ENGINEERED ANTIMICROBIAL AMPHIPHILIC PEPTIDES” (priority 2021, published 2024).

The test system of this series is Pseudomonas aeruginosa ATCC 27853 (non-MDR; QC). Particulars: P. aeruginosa ATCC 27853; established CLSI QC range; cited from earlier work.

For Colistin [reference compound], the “MIC QC range (in parentheses under the MIC)” value is on record as “(0.5-4) μg/mL”.
